Data taken from patent US20190256559A1, “PEPTIDOMIMETIC MACROCYCLES AND USES THEREOF” (AILERON THERAPEUTICS, INC., priority 2015, published 2019).
“Also recorded” adds a separate entry of the source. Where a SMILES comes first, the peptide text is derived from it. Bridges are numbered along the chain shown (N, C = ends). [ ]: non-standard residue; d: D form. R8 = C=CCCCCCC[C@@](C)(N)C(=O)O; S5 = C=CCCC[C@](C)(N)C(=O)O

Tests used:
[1] = test system: BV-173 leukemia cells; assay: Multiplexed cytotoxicity assay: relative cell count in BV-173 cells (wild type p53); type: cell-based; details: wild type p53, 72 h
Protocol: (§1) Cell lines from hematologic liquid cancer cells, characterized for p53 mutant/wild-type status, were seeded into 384-well plates and incubated in a humidified atmosphere of 5% CO2 at 37° C. Peptide 1 was serially diluted and assayed over 10 concentrations, up to 30 μM, in a final assay concentration of 0.1% DMSO. Treatment was added 24 hours post cell seeding, when a time zero untreated cell plate was also generated to determine the number of doublings in the 72 hour assay period. About one hundred cells per well were evaluated, with each test condition run in duplicate wells. After a 72 hour incubation period, cells were fixed and stained with fluorescently labeled antibody and nuclear dye. In the same wells, nuclei were assessed for toxicity (dye uptake) by automated fluorescence microscopy; apoptosis was assayed by elevations in anti-active caspase-3 antibody; and cell cycle arrest was assayed by elevations in anti-p21 monoclonal antibody EA10.
(§2) Cell proliferation was measured by relative cell count, which was expressed as percent of control.
Those that did were most often characterized by significant inductions of both caspase-3 and p21. Results with BV-173 leukemia cells (Table 16) are representative of the typical responses with these cell lines.

[2] = test system: liquid cancer cell lines with mutant p53; assay: Multiplexed cytotoxicity assay: cell proliferation/cytotoxicity (relative cell count), 72 h, cell lines with mutant p53; type: cell-based
Protocol: The objective of this study was to concurrently evaluate peptide 1-induced cytotoxicity, p21 up-regulation and caspase-3 activation in multiple liquid cancer cell cell lines characterized as having either wild-type or mutated p53 in order to determine whether the cytotoxicity is PD-mediated.
as §1
(§3) Cell proliferation was measured by relative cell count, which was expressed as percent of control. […]

[3] = test system: rat bone marrow; assay: In vivo micronucleus assay
Description: (§4) Peptide 1 was negative in genetic toxicology studies, including bacterial mutagenicity (Ames), chromosomal aberrations (human peripheral blood lymphocyte) and in vivo micronucleus (rat bone marrow) assays.

[4] = Preclinical GLP safety studies in rodents and monkeys (overall profile); type: in vivo
Description: Genotoxicity, gastrointestinal toxicity, cardiotoxicity, and immunogenicity were not observed.

[5] = test system: hematologic cancer cell lines with wild-type p53; assay: Multiplexed cytotoxicity assay: cell proliferation/cytotoxicity (relative cell count), 72 h, cell lines with wild-type p53; type: cell-based; details: liquid cancer cells expressing WT p53 protein
[6] = Pharmacokinetic/toxicokinetic studies after IV administration in mice, rats and monkeys; type: in vivo
Description: Pharmacokinetic studies characterize exposure kinetics following single IV administrations of peptide 1 in mice, rats and monkeys, including evaluations of two different dosing formulations in rats and monkeys. Using qualified liquid chromatography with tandem mass spectrometry (LC-MS-MS) methods for efficacy models and dose range-finding (DRF) studies, and validated methods for GLP safety studies, absorption was characterized in mice at the MED in efficacy models and in rats and monkeys at tolerated and non-tolerated doses in toxicology studies.

[7] = Single-dose rat study of metabolism and elimination; type: in vivo
Description: (§5) Proteolysis is the major biotransformation pathway of peptide 1. […] The predominant metabolite was also observed in the plasma in both the rat and monkey 4-week GLP toxicology studies, with adequate exposures in these studies to provide characterization of its impact on the overall safety profile of peptide 1. […] Accumulation of the predominant metabolite was not observed with repeated twice-weekly dosing in rats or monkeys.

[8] = test system: HEL-92-1-7 leukemia cells; assay: Multiplexed cytotoxicity assay: relative cell count in HEL-92-1-7 cells (mutant p53); type: cell-based; details: mutant p53, 72 h
Protocol: as §1, §3
Results with HEL-92-1-7 leukemia cells (Table 17) are representative of the typical responses with these cell lines.

[9] = test system: bacterial mutagenicity (Ames); assay: Bacterial mutagenicity (Ames)
Description: as §4

[10] = 4-week monkey GLP toxicity study, twice-weekly IV dosing (toxicity and toxicokinetics); type: in vivo, monkeys
Description: (§6) The 4-week multiple-dose GLP studies in rats and monkeys utilized twice-weekly IV dosing of peptide 1. The studies provided dose- and exposure-related assessments during both dosing and recovery periods, and results were utilized to define the maximum tolerated doses (MTD) and estimate the severely toxic dose for 10% (STD10) of rats and the highest non-severely toxic dose (HNSTD) in monkeys. All gross and microscopic signs of intolerance (e.g., reduced organ weights, sporadic findings of multi-tissue hemorrhage and hepatic necrosis) and changes in serum chemistry parameters were considered as secondary to red blood cell (RBC), platelet and/or white blood cell (WBC) depletions or anorexia and dehydration in both species.

[11] = test system: MV 4; 11 human leukemia xenograft; assay: MV 4;11 human leukemia (AML) xenograft model, survival; type: in vivo; details: mice, 25 mg/kg, six bi-weekly doses
Protocol: In another study, MV 4; 11 human leukemia xenograft model was used in mice to assess the ability of peptide 1 to inhibit tumor growth and improve overall survival in AML, a highly aggressive liquid tumor. In this study, 25 mg/kg dose of peptide 1 was administered in six bi-weekly doses and compared to the results of mice treated with only cyclophosphamide, the control group. Mice were monitored individually for an endpoint of morbidity due to progression of the leukemia. All ten mice that received the control exited the study between days 21 and 28, offering a sensitive assay for activity.

[12] = test system: human peripheral blood lymphocyte
[13] = test system: cytochrome P450 (CYP) isoforms; assay: In vitro cytochrome P450 inhibition; type: in vitro ADME
Description: (§7) Inhibition or induction of cytochrome P450 (CYP) enzymes by peptide 1 appears to be negligible at clinically-relevant concentrations, although interactions are possible at high exposures of peptide 1 with drugs that are predominantly cleared by hepatobiliary transporters.
(§8) Based on these findings, the potential of clinically relevant drug-drug interactions for concomitant medications that are cleared through CYP-mediated mechanisms can be low.

[14] = test system: cryopreserved hepatocytes; assay: In vitro metabolite profile / stability in cryopreserved hepatocytes; type: in vitro ADME, mouse, rat, monkey, and human
Description: as §5

[15] = test system: activated caspase-3; assay: Multiplexed cytotoxicity assay: activated caspase-3 (apoptosis) induction in p53 wild-type hematopoietic cell lines; type: cell-based
Protocol: as §1, §2

[16] = test system: p21; assay: Multiplexed cytotoxicity assay: p21 induction in p53 wild-type hematopoietic cell lines; type: cell-based
Protocol: as §1

[17] = test system: cytochrome P450 (CYP) enzymes; assay: In vitro cytochrome P450 induction; type: in vitro ADME
Description: as §7, §8

[18] = test system: plasma protein; assay: In vitro plasma protein binding; type: in vitro ADME, mouse, rat, dog, monkey, human; details: for free peptide 1 fraction: human and monkey plasma
Protocol: The in vitro protein binding of peptide 1 was evaluated over a range of concentrations in mouse, rat and monkey plasma, as well as human plasma samples from normal subjects and hypoalbuminemic patients.

[19] = 4-week rat GLP toxicity study, twice-weekly IV dosing (toxicity and toxicokinetics); type: in vivo, rats
Description: as §6

[20] = in vivo, intravenous, 4-week monkey GLP toxicity study, range over doses
[21] = in vivo, intravenous, 4-week rat GLP toxicity study, range over doses

SMILES: CC(=O)N[C@@H](CC(C)C)C(=O)N[C@H](C(=O)N[C@@H](Cc1ccccc1)C(=O)N[C@]1(C)CCCCCC/C=C/CCC[C@@](C)(C(=O)N[C@@H](C)C(=O)N[C@@H](C)C(=O)N[C@@H](C)C(=O)N[C@@H](C)C(=O)N[C@@H](C)C(=O)N[C@H](C)C(N)=O)NC(=O)[C@H](CC(C)C)NC(=O)[C@H](CCC(N)=O)NC(=O)[C@H](C)NC(=O)[C@H](Cc2c[nH]c3ccccc23)NC(=O)[C@H](Cc2ccc(O)cc2)NC(=O)[C@H](CCC(=O)O)NC1=O)[C@@H](C)O [peptide 1] (Ac-LTF[R8]EYWAQL[S5]AAAAA[dA]-NH2; staple (E) 4-11)
- Relative Cell Count (%) Mean ([1]; 3.00E+00 μM): 15.0%
- Relative Cell Count (%) Mean ([1]; 3.00E+01 μM): 2.2%
- Relative Cell Count (%) Mean ([1]; 3.01E−01 μM): 31.8%
- Relative Cell Count (%) Mean ([1]; 3.01E−02 μM): 84.8%
- Relative Cell Count (%) Mean ([1]; 3.02E−03 μM): 99.9%
- Relative Cell Count (%) Mean ([1]; 9.49E+00 μM): 4.3%
- Relative Cell Count (%) Mean ([1]; 9.51E−01 μM): 14.3%
- Relative Cell Count (%) Mean ([1]; 9.52E−02 μM): 64.4%
- Relative Cell Count (%) Mean ([1]; 9.53E−03 μM): 94.9%
- Relative Cell Count (%) Mean ([1]; 9.55E−04 μM): 100.8%
- activity in in vitro liquid cancer cell growth assays ([2]; cells with mutations of p53): not in cells with mutations of p53
- character of cytotoxicity ([2]; liquid cancer cell lines containing mutated p53): cell cycle arrest without elevated apoptosis
- in vivo micronucleus [3]: negative
- Genotoxicity [4]: not observed
- Histopathology [4]: bone marrow hypocellularity consistent with mild to moderate myelosuppression
- cardiotoxicity [4]: not observed
- gastrointestinal toxicity [4]: not observed
- immunogenicity [4]: not observed
- activity in in vitro liquid cancer cell growth assays [5]: demonstrates activity
- dose proportionality of exposure ([6]; rats and monkeys): increased proportionally with dose
- sex-based differences in PK ([6]; rats and monkeys): No significant sex-based differences
- accumulation following multiple doses ([6]; rats and monkeys, twice-weekly schedule): no accumulation
- accumulation of the predominant metabolite ([6]; repeated twice-weekly dosing in rats or monkeys): not observed
- predominant clearance pathway [7]: hepatobiliary metabolism and elimination
- Relative Cell Count (%) Mean ([8]; 3.00E+00 μM): 79.2%
- Relative Cell Count (%) Mean ([8]; 3.00E+01 μM): 67.9%
- Relative Cell Count (%) Mean ([8]; 3.01E−01 μM): 77.8%
- Relative Cell Count (%) Mean ([8]; 3.01E−02 μM): 89.8%
- Relative Cell Count (%) Mean ([8]; 3.02E−03 μM): 96.8%
- Relative Cell Count (%) Mean ([8]; 9.49E+00 μM): 76.9%
- Relative Cell Count (%) Mean ([8]; 9.51E−01 μM): 81.9%
- Relative Cell Count (%) Mean ([8]; 9.52E−02 μM): 89.7%
- Relative Cell Count (%) Mean ([8]; 9.53E−03 μM): 98.2%
- Relative Cell Count (%) Mean ([8]; 9.55E−04 μM): 98.5%
- bacterial mutagenicity (Ames) [9]: negative
- exposure at the high-dose group ([10]; 20 mg/kg, 4-week monkey GLP toxicity study): apparent plateau in exposure
- platelet response ([10]; 4-week monkey GLP toxicity study, different dosings): dose-dependent decreases in platelets with recovery
- Cmax [10, 20]: 133 to 562 µg/mL
- clearance [10, 20]: 0.108 to 0.23 mL/min/kg
- half-life [10, 20]: 3.7 to 6 h
- AUC(0-inf) ([10]; in vivo, intravenous, 4-week monkey GLP toxicity study, range over doses, read-out: AUC0-∞): 813 to 1600 µg·h/mL
- AUC(0-inf) ([10]; in vivo, intravenous, monkey, 5 mg/kg, read-out: AUC0-∞ at HNSTD in monkeys): 813 µg·h/mL
- predominant metabolite plasma exposure relative to AUC ([10]; monkey, 4-week GLP toxicology study): 10%
- significant thrombocytopenia ([10]; monkeys, lowest dose level 5 mg/kg): complete lack of significant thrombocytopenia
- significant thrombocytopenia ([10]; monkeys, mid- and high-dose levels): only one animal
- HNSTD (highest non-severely toxic dose) ([10]; monkeys, twice-weekly IV, 4 weeks): 5 mg/kg
- dose proportionality of exposure ([10]; non-human primates): increased proportionally with dose
- median overall survival [11]: 40 days
- chromosomal aberrations [12]: negative
- inhibition of cytochrome P450 (CYP) isoforms [13]: negligible; also recorded: not an inhibitor
- major biotransformation pathway ([14]; in vitro, across species): Proteolysis
- metabolite profile across species ([14]; mouse, rat, monkey, and human cryopreserved hepatocytes): same metabolite profile
- apoptotic response (activated caspase-3) [15]: robust apoptotic responses
- induction of p21 [16]: significant induction of p21
- induction of cytochrome P450 (CYP) enzymes [17]: negligible; also recorded: did not indicate any significant treatment-related effects
- free peptide 1 fraction ([18]; concentrations >200 μM): 12-14%
- free peptide 1 fraction ([18]; concentrations up to 150 μM): 3-4%
- fraction unbound ([18]; mouse and rat plasma up 250 µM): < 0.02
- fraction unbound ([18]; mouse, rat, dog, monkey, human, plasma of mice, rats, dogs, monkeys, and humans): 0.02 to 0.08
- Cmax [19, 21]: 49.9 to 186 µg/mL
- clearance [19, 21]: 0.32 to 0.472 mL/min/kg
- AUC(0-inf) ([19]; in vivo, intravenous, 4-week rat GLP toxicity study, range over doses, read-out: AUC0-∞): 90.5 to 562 µg·h/mL
- AUC(0-inf) ([19]; in vivo, intravenous, rat, 10 mg/kg, read-out: AUC0-∞ at rat STD10): 562 µg·h/mL
- predominant metabolite exposure relative to peptide 1 AUC ([19]; rat, 4-week GLP toxicology study): 6%
- dose proportionality of Cmax and AUC ([19]; rats): linear, dose-proportional increases
- STD10 (severely toxic dose for 10%) ([19]; rats, twice-weekly IV, 4 weeks): 10 mg/kg
